# Results reported in ChEMBL document CHEMBL1124978, “Direct C-glycosylation of guanine analogues: the synthesis and antiviral activity of certain 7- and 9-deazaguanine C-nucleosides” (1990).
# Experiments:
# Type in all cases: functional
# Details in all cases: route intraperitoneal
# Mus musculus [1] = experiment: Tested against Forest virus infection in mice at dose 100 mg/kg administered intraperitoneally
# Mus musculus [2] = experiment: Tested against Forest virus infection in mice at dose 100 mg/kg administered intraperitoneally; 1/12(8)
# Mus musculus [3] = experiment: Tested against Forest virus infection in mice at dose 100 mg/kg administered intraperitoneally; 10/12(83)
# Mus musculus [4] = experiment: Tested against Forest virus infection in mice at dose 100 mg/kg administered intraperitoneally; 0/12(0)
# Mus musculus [5] = experiment: Tested against Forest virus infection in mice at dose 100 mg/kg administered intraperitoneally; 7/12(58)
# Mus musculus [6] = experiment: Tested against Forest virus infection in mice at dose 100 mg/kg administered intraperitoneally in experiment 2; 11/12(92)
# Mus musculus [7] = experiment: Tested against Forest virus infection in mice at dose 100 mg/kg administered intraperitoneally in experiment 1; 9/12(75)
# Mus musculus [8] = experiment: Tested against Forest virus infection in mice at dose 100 mg/kg administered intraperitoneally in experiment 2
# Mus musculus [9] = experiment: Tested against Forest virus infection in mice at dose 100 mg/kg administered intraperitoneally in experiment 3
# Mus musculus [10] = experiment: Tested against Forest virus infection in mice at dose 100 mg/kg administered intraperitoneally in experiment 1
# Mus musculus [11] = experiment: Tested against Forest virus infection in mice at dose 100 mg/kg administered intraperitoneally in experiment 3; 11/12(92)
structure (smiles),measurement,setting,value
NC1=NC(=O)C2NC=C([C@@H]3O[C@H](CO)[C@@H](O)[C@H]3O)C2=N1 (stereo partly specified),Mean survival time,Mus musculus [1],7.3 days
same,Survivors / total,Mus musculus [2],8.33%
CN1C(Cl)=C([C@@H]2O[C@H](CO)[C@@H](O)[C@H]2O)C2=NC(N)=NC(=O)C21 (stereo partly specified),Mean survival time,Mus musculus [1],11 days
same,Survivors / total,Mus musculus [3],10%
CN1C=C([C@@H]2O[C@H](CO)[C@@H](O)[C@H]2O)C2=NC(N)=NC(=O)C21 (stereo partly specified),Mean survival time,Mus musculus [1],8.1 days
same,Survivors / total,Mus musculus [2],8.33%
CC1=C([C@@H]2O[C@H](CO)[C@@H](O)[C@H]2O)C2C(=O)N=C(N)N=C2N1 (stereo partly specified),Survivors / total,Mus musculus [4],0%
same,Mean survival time,Mus musculus [1],7.2 days
CN1C(Br)=C([C@@H]2O[C@H](CO)[C@@H](O)[C@H]2O)C2=NC(N)=NC(=O)C21 (stereo partly specified),Mean survival time,Mus musculus [1],7 days
same,Survivors / total,Mus musculus [5],7%
Nc1nc(=O)c2sc(=O)n([C@@H]3O[C@H](CO)[C@@H](O)[C@H]3O)c2[nH]1 [ISATORIBINE],Survivors / total,Mus musculus [6],91.7%
same,Survivors / total,Mus musculus [7],75%
same,Mean survival time,Mus musculus [8],10 days
same,Mean survival time,Mus musculus [9],9 days
same,Mean survival time,Mus musculus [10],8.3 days
same,Survivors / total,Mus musculus [11],91.7%
